From patent US20150299143A1, “SUBSTITUTED TRIAZOLE AND IMIDAZOLE COMPOUNDS” (HOFFMANN-LA ROCHE INC., priority 2012, published 2015) come the findings set out here.

Like-named read-outs stand apart in the source and are kept apart here.

Experiment [1] addresses T1, β 5i (chymotrypsin-like activity) (Homo sapiens, UniProt P20618+P28062).
T1 construct: protease activity associated with the proteasome complex in cultured cells; endogenous in cells; host or cells: Ramos cells
Description: Cell-Based Proteasome subunit activity/selectivity assay, β5i, substrate (ANW)2Rh110. The settings on record: Ramos cells; substrate (ANW)2Rh110 (β5i); highest concentration tested 20 μM; read-out: Ic50:ramos:ac-(anw)2-r110. An excerpt:
(§1) Cell-Based Proteasome Activity/Selectivity Assay
(§2) The Cell-Based Proteasome subunit activity/selectivity assay was a panel of 5 fluorogenic assays that independently measured the activity of β5c or β 5i (chymotrypsin-like activity), β 2c/2i (trypsin-like), and β 1c or β 1i (caspase-like) protease activity associated with the proteasome complex in cultured cells. Specifically, the following substrates were used for respective subunit activities: β 1i (PAL)2Rh110, β 1c: (LLE)2 Rh110, β 2c/2i: (KQL)2Rh110, β 5c: (WLA)2Rh110, β 5i: (ANW)2Rh110. The following procedure was followed:
(§3) Added 0.5 μl of 100× 4-fold serial diluted test compounds or DMSO to each well. Highest concentration of compound tested was 20 μM, thus compound serial dilution started from […]. Incubated for 30 minutes at 37° C. Then equilibrated at room temperature for 15 minutes. […] Shaked for one minute @ 700 rpm. Incubated for 120 min at room temperature. Then read the plates with an Envision multilabel plate reader (PerkinElmer) with 500 nm excitation/519 nm emission.

The target of experiment [2] is T2, β 1i (caspase-like) (Homo sapiens, UniProt P28065+P40306).
T2 construct: protease activity associated with the proteasome complex in cultured cells; endogenous in cells; host or cells: Ramos cells
Description: Cell-Based Proteasome subunit activity/selectivity assay, β1i, substrate (PAL)2Rh110.
Description: as §1, §2, §3

The target of experiment [3] is T3, β5c (chymotrypsin-like activity) (Homo sapiens, UniProt P20618+P28074).
T3 construct: protease activity associated with the proteasome complex in cultured cells; endogenous in cells; host or cells: Ramos cells
Kind of experiment: Cell-Based Proteasome subunit activity/selectivity assay, β5c, substrate (WLA)2Rh110.
Description: as §1, §2, §3

Experiment [4] addresses T4, β 1c (caspase-like) (Homo sapiens, UniProt P28072+Q99436).
T4 construct: protease activity associated with the proteasome complex in cultured cells; endogenous in cells; host or cells: Ramos cells
Description: Cell-Based Proteasome subunit activity/selectivity assay, β1c, substrate (LLE)2Rh110.
Description: as §1, §2, §3

Experiment [5] concerns β 2c/2i (trypsin-like). Kind of experiment: Cell-Based Proteasome subunit activity/selectivity assay, β2c/2i, substrate (KQL)2Rh110. The settings on record: Ramos cells; substrate (KQL)2Rh110 (β2c/2i); highest concentration tested 20 μM.
Description: as §1, §2, §3

Where [6] appears, read: Ramos cells, substrate (PAL)2Rh110 (β1i), highest concentration tested 20 μM, read-out: Ic50:ramos:rh110-(pal)2.
Setting [7] is: Ramos cells, substrate (WLA)2Rh110 (β5c), highest concentration tested 20 μM, read-out: Ic50:ramos:rh110-(wla)2.
Setting [8] is: Ramos cells, substrate (LLE)2Rh110 (β1c), highest concentration tested 20 μM, read-out: Ic50:ramos:rh110-(lle)2.

Usually IC50 stands for the concentration needed to halve the response being measured.

For the compound `COc1ccc(C(=O)NCCn2cc(C(=O)NC(C#N)c3ccc4ccsc4c3)nn2)c(OC)c1OC` (stereo not shown) [Example 66, 1-[2-(2,3,4-Trimethoxy-benzoylamino)-ethyl]-1H-[1,2,3]triazole-4-carboxylic acid (benzo[b]thiophen-6-yl-cyano-methyl)-amide], the IC50 was 0.795 µM in experiment [1]; not below 20 µM in experiment [2] (setting [6]); not below 20 µM in experiment [3] (setting [7]); not below 20 µM in experiment [4] (setting [8]); not below 20 µM in experiment [5].

Turning to `CCc1ccc(C(C#N)NC(=O)c2cn(CC/N=C(\SC)c3ccc(OC)c(OC)c3OC)nn2)cc1` (stereo not shown) [Example 87, N-[2-(4-{[Cyano-(4-ethyl-phenyl)-methyl]-carbamoyl}-[1,2,3]triazol-1-yl)-ethyl]-2,3,4-trimethoxy-thiobenzimidic acid methyl ester], the IC50 is 2.47 µM in experiment [1]; not below 20 µM in experiment [2] (setting [6]); 8.55 µM in experiment [3] (setting [7]); not below 20 µM in experiment [4] (setting [8]); not below 20 µM in experiment [5].

On to `COc1cccc(C(C#N)NC(=O)c2cn(CCNC(=O)c3ccc(OC)c(OC)c3OC)nn2)c1` (stereo not shown) [Example 52, 1-[2-(2,3,4-Trimethoxy-benzoylamino)-ethyl]-1H-[1,2,3]triazole-4-carboxylic acid [cyano-(3-methoxy-phenyl)-methyl]-amide], for which the half-maximal inhibitory concentration (IC50) in experiment [1] was 2.69 µM; in experiment [2] (setting [6]), not below 20 µM; in experiment [3] (setting [7]), not below 20 µM; in experiment [4] (setting [8]), not below 20 µM; in experiment [5], not below 20 µM.

For the compound `COc1ccc(C(=O)NCCn2cc(C(=O)NC(C#N)c3cccc4ccccc34)nn2)c(OC)c1OC` (stereo not shown) [Example 57, 1-[2-(2,3,4-Trimethoxy-benzoylamino)-ethyl]-1H-[1,2,3]triazole-4-carboxylic acid (cyano-naphthalen-1-yl-methyl)-amide], the IC50 in experiment [1] was 6.49 µM; in experiment [2] it was not below 20 µM; in experiment [3] it was not below 20 µM; in experiment [4], not below 20 µM; in experiment [5], not below 20 µM.

For `Cc1ccc(C(=O)NCCn2cc(C(=O)NC(C#N)c3ccc(C(F)(F)F)cc3)nn2)c(F)c1` (stereo not shown) [Example 75, 1-[2-(2-Fluoro-4-methyl-benzoylamino)-ethyl]-1H-[1,2,3]triazole-4-carboxylic acid [cyano-(4-trifluoromethyl-phenyl)-methyl]-amide], the IC50 in experiment [1] was 1.39 µM; in experiment [2] (setting [6]) it was not below 20 µM; in experiment [3] (setting [7]) it was 19.9 µM; in experiment [4] (setting [8]) it was not below 20 µM; in experiment [5], not below 20 µM.

As to `CCc1ccc(C(C#N)NC(=O)c2cn(CCNC(=O)c3ccc(Cl)cn3)nn2)cc1` (stereo not shown) [Example 44, 5-Chloro-pyridine-2-carboxylic acid [2-(4-{[cyano-(4-ethyl-phenyl)-methyl]-carbamoyl}-[1,2,3]triazol-1-yl)-ethyl]-amide], the IC50 in experiment [1] was 2.93 µM; in experiment [2] (setting [6]), not below 20 µM; in experiment [3] (setting [7]) it was not below 20 µM; in experiment [4] (setting [8]), not below 20 µM; in experiment [5], not below 20 µM.

On to `COc1ccc(C(=O)NCCn2cc(C(=O)NC(C#N)c3ccc(C(F)(F)F)cc3)nn2)c(OC)c1OC` (stereo not shown) [Example 60, 1-[2-(2,3,4-Trimethoxy-benzoylamino)-ethyl]-1H-[1,2,3]triazole-4-carboxylic acid [cyano-(4-trifluoromethyl-phenyl)-methyl]-amide], for which the IC50 was 0.619 µM in experiment [1]; not below 20 µM in experiment [2] (setting [6]); not below 20 µM in experiment [3] (setting [7]); not below 20 µM in experiment [4] (setting [8]); not below 20 µM in experiment [5].

With `COc1ccc(C(=O)NCCn2cc(C(=O)NCc3ccc(SC)cc3)nn2)c(OC)c1OC` [Example 6, 1-[2-(2,3,4-Trimethoxy-benzoylamino)-ethyl]-1H-[1,2,3]triazole-4-carboxylic acid 4-methylsulfanyl-benzylamide], the IC50 in experiment [1] was 0.919 µM; in experiment [2] (setting [6]), not below 20 µM; in experiment [3] (setting [7]), not below 20 µM; in experiment [4] (setting [8]), not below 20 µM; in experiment [5], not below 20 µM.

`CC1=C(C(=O)NCCn2cc(C(=O)NC(C#N)c3ccc(C(F)(F)F)cc3)nn2)Cc2ccccc21` (stereo not shown) [Example 70, 1-{2-[(3-Methyl-1H-indene-2-carbonyl)-amino]-ethyl}-1H-[1,2,3]triazole-4-carboxylic acid [cyano-(4-trifluoromethyl-phenyl)-methyl]-amide]: the 50% inhibitory concentration (IC50) was 0.445 µM in experiment [1]; not below 20 µM in experiment [2] (setting [6]); 10.8 µM in experiment [3] (setting [7]); not below 20 µM in experiment [4] (setting [8]); not below 20 µM in experiment [5].

With `COc1ccc(C(=O)NCCn2cc(C(=O)NC(C#N)c3ccc(Cl)cc3)nn2)c(OC)c1OC` (stereo not shown) [Example 68, 1-[2-(2,3,4-Trimethoxy-benzoylamino)-ethyl]-1H-[1,2,3]triazole-4-carboxylic acid [(4-chloro-phenyl)-cyano-methyl]-amide], the IC50 was 0.327 µM in experiment [1]; not below 20 µM in experiment [2] (setting [6]); 16.8 µM in experiment [3] (setting [7]); not below 20 µM in experiment [4] (setting [8]); not below 20 µM in experiment [5].

Regarding `COc1ccc(C(=O)NCCn2cc(C(=O)N[C@@H](CCc3ccccc3)C(=O)O)nn2)c(OC)c1OC` [Example 83, (S)-4-Phenyl-2-({1-[2-(2,3,4-trimethoxy-benzoylamino)-ethyl]-1H-[1,2,3]triazole-4-carbonyl}-amino)-butyric acid], the concentration for half-maximal inhibition (IC50) in experiment [1] was 0.921 µM; in experiment [2], not below 20 µM; in experiment [3], 8.36 µM; in experiment [4], not below 20 µM; in experiment [5], not below 20 µM.

Consider `CCc1ccc(C(C#N)NC(=O)c2cn(CCNC(=O)c3ccc(C(F)(F)F)cc3OC)cn2)cc1` (stereo not shown) [Example 92, 1-[2-(2-Methoxy-4-trifluoromethyl-benzoylamino)-ethyl]-1H-imidazole-4-carboxylic acid [cyano-(4-ethyl-phenyl)-methyl]-amide], for which the IC50 is 0.996 µM in experiment [1]; not below 20 µM in experiment [2] (setting [6]); not below 20 µM in experiment [3] (setting [7]); 18.3 µM in experiment [4] (setting [8]); not below 20 µM in experiment [5].

As for `CCc1ccc(C(C#N)NC(=O)c2cn(CCNC(=O)c3ccc(OC(F)(F)F)cc3OC)nn2)cc1` (stereo not shown) [Example 11, 1-[2-(2-Methoxy-4-trifluoromethoxy-benzoylamino)-ethyl]-1H-[1,2,3]triazole-4-carboxylic acid [cyano-(4-ethyl-phenyl)-methyl]-amide], the IC50 was 0.106 µM in experiment [1]; not below 20 µM in experiment [2] (setting [6]); 9.98 µM in experiment [3] (setting [7]); not below 20 µM in experiment [4] (setting [8]); not below 20 µM in experiment [5].

For the compound `CCc1ccc(C(C#N)NC(=O)c2cn(CCNC(=O)C3Cc4ccccc4C3)nn2)cc1` (stereo not shown) [Example 12, 1-{2-[(Indane-2-carbonyl)-amino]-ethyl}-1H-[1,2,3]triazole-4-carboxylic acid [cyano-(4-ethyl-phenyl)-methyl]-amide], the half-maximal inhibitory concentration (IC50) in experiment [1] is 1.26 µM; in experiment [2] (setting [6]), not below 20 µM; in experiment [3] (setting [7]) it was not below 20 µM; in experiment [4] (setting [8]), not below 20 µM; in experiment [5], not below 20 µM.

As for `COc1cc(C(F)(F)F)ccc1C(=O)NCCn1cnc(C(=O)NC(C#N)c2ccc(Br)cc2)c1` (stereo not shown) [Example 93, 1-[2-(2-Methoxy-4-trifluoromethyl-benzoylamino)-ethyl]-1H-imidazole-4-carboxylic acid [(4-bromo-phenyl)-cyano-methyl]-amide], the IC50 is 0.497 µM in experiment [1]; not below 20 µM in experiment [2] (setting [6]); not below 20 µM in experiment [3] (setting [7]); not below 20 µM in experiment [4] (setting [8]); not below 20 µM in experiment [5].

Turning to `CCCc1ccc(C(C#N)NC(=O)c2cn(CCNC(=O)c3ccc(OC)c(OC)c3OC)nn2)cc1` (stereo not shown) [Example 64, 1-[2-(2,3,4-Trimethoxy-benzoylamino)-ethyl]-1H-[1,2,3]triazole-4-carboxylic acid [cyano-(4-propyl-phenyl)-methyl]-amide], the 50% inhibitory concentration (IC50) in experiment [1] was 0.127 µM; in experiment [2] (setting [6]), 10.1 µM; in experiment [3] (setting [7]), 8.31 µM; in experiment [4] (setting [8]), 9.68 µM; in experiment [5] it was not below 20 µM.

Take `CC(CCc1ccccc1)NC(=O)c1cn(CCNC(=O)c2ccc(C(F)(F)F)cc2F)nn1` (stereo not shown) [Example 79, 1-[2-(2-Fluoro-4-trifluoromethyl-benzoylamino)-ethyl]-1H-[1,2,3]triazole-4-carboxylic acid (1-methyl-3-phenyl-propyl)-amide]: the IC50 is 0.159 µM in experiment [1]; 0.976 µM in experiment [2] (setting [6]); 3.39 µM in experiment [3] (setting [7]); not below 20 µM in experiment [4] (setting [8]); not below 20 µM in experiment [5].
